Legend:
[1] = system: no loop RNA (RNA, hairpin) GGGAGAGGGUUUAAUCAGUACGAAAGUACUGAUUGGAUCCGCAAGG; test: competition dialysis; conditions: 110 mM KCl, 2 mM MgCl2, 2 mM CaCl2, 8 mM Na phosphate; 1 mM EDTA, pH 7.0, 20–22°C; 1 μM ligand, 1.56 μM RNA; bound ligand concentration
[2] = system: U·U RNA hairpin (5'CNG/3'GNC panel) (RNA, mismatch bulge abasic) GGGAGAGGGUUUAAUCUGUACGAAAGUACUGAUUGGAUCCGCAAGG; test: competition dialysis; conditions: 110 mM KCl, 2 mM MgCl2, 2 mM CaCl2, 8 mM Na phosphate; 1 mM EDTA, pH 7.0, 20–22°C; 1 μM ligand, 1.56 μM RNA; bound ligand concentration
[3] = system: RNA hairpin with six 5'CUG/3'GUC internal loops (RNA, repeat) GGGAGAGGGUUUAAUCUGCUGCUGCUGCUGCUGUACGAAAGUACUGCUGCUGCUGCUGCUGAUUGGAUCCGCAAGG; test: competition dialysis; conditions: 110 mM KCl, 2 mM MgCl2, 2 mM CaCl2, 8 mM Na phosphate; 1 mM EDTA, pH 7.0, 20–22°C; 1 μM ligand, 1.33 μM RNA; compared with MBNL1 protein
[4] = system: A-G RNA hairpin (5'CNG/3'GNC panel) (RNA, mismatch bulge abasic) GGGAGAGGGUUUAAUCAGUACGAAAGUACGGAUUGGAUCCGCAAGG; test: competition dialysis; conditions: 110 mM KCl, 2 mM MgCl2, 2 mM CaCl2, 8 mM Na phosphate; 1 mM EDTA, pH 7.0, 20–22°C; 1 μM ligand, 1.56 μM RNA; bound ligand concentration
[5] = system: Cy3-(CUG)10 RNA (RNA, repeat) CUGCUGCUGCUGCUGCUGCUGCUGCUGCUG; test: fluorescence titration (Cy3 emission); conditions: HEPES-buffered saline; 0.5% DMSO, 0.005% Tween-20; one-site fit

In the case of `COC(=O)c1ccc(O)c2nc3c(C=O)c(O)c(-c4c(O)c(C=O)c5nc6c(O)ccc(C(=O)OC)c6nc5c4O)c(O)c3nc12`, the “Bound Dilomofungin (Cb)” value [1] is reported as 228 ± 77 nM, the binding [2] is reported as “yes” and the binding [3] is reported as “yes”. For the same compound, the “Bound Dilomofungin (Cb)” value [4] was 77.8 ± 33 nM and the KD [5] was 606 ± 300 nM.
For `COC(=O)c1ccc(O)c2nc3c(C=O)c(O)cc(O)c3nc12`, the binding [2] was “yes”, the binding [3] was “yes” and the KD [5] was 998 ± 180 nM.

Reference: publication PMC4041448 (2014)
